Tests used:
[1] = test system: chromosomal GFP/IVS2-1^G→A gene; assay: Gene correction of chromosomal GFP/IVS2-1G→A fusion gene in CHO reporter cells, GFP-positive cells quantified by FACS; format: cell-based; details: with β-globin/GFP donor DNA (or donor alone)
Experimental: The HinDIII-NotI fragments of these plasmids, containing the GFP sequence interrupted by IVS2-1 or IVS2 wt construct, were subcloned into the multiple cloning site of pcDNA5/FRT (Invitrogen, Carlsbad, Calif.), and the resulting vectors were stably transfected into CHO-Flp host cell lines using the Flp-In System according to manufacturer's instructions (Invitrogen, Carlsbad Calif.). […] The resulting CHO-GFP/IVS2-1^G→A cells and control CHO-GFP/IVS2-1^WT cells were grown in Ham's F12 media supplemented with 10% FBS and 2 mM L-glutamine.
1×10^6 cells in 100 μl of media were mixed with selected pcPNAs (6 μM) and GFP-DNA (12 μM) oligonucleotides and electroporated in 0.4 cm cuvettes using a Bio-Rad Gene Pulser (280V, […], Hercules, Calif.). Cells were replated in 60 mm dishes following electroporation and allowed to expand to approximately 90% confluency (2-3 days). […] Two days later as indicated, cells were then visualized via fluorescence microscopy or analyzed by FACS.
Cells were visualized using a Zeiss Axiovert 200 (Thornwood, N.Y.) fluorescent microscope at 100× and 200× magnification. […] Cells were analyzed using a Becton Dickinson FACS-Calibur flow cytometer (Franklin Lakes, N.J.). […] Collected data were then analyzed using the FlowJo software (Tree Star Inc., Ashland, Oreg.). […]

supF reporter gene = assay: Induced recombination / gene correction of supF reporter gene in SV40-based shuttle vector transfected into COS cells, scored in indicator bacteria; format: cell-based, monkey; details: plasmid co-mixed with binding molecule and supF1-donor DNA, two days
Excerpt: In this assay, each targeting oligomer was designed, including the pair of pcPNAs, the TFO (AG30) and the bis-PNA (bis-PNA5), to bind to a selected site in the supF reporter gene contained in an SV40-based shuttle vector. In this vector construct, the supF gene has an inactivating single base pair mutation which can be corrected by recombination with a short single stranded oligonucleotide donor. The pcPNAs were designed to bind to a mixed sequence site 62 by away from the mutation, whereas the TFO and the bis-PNA were targeted to a G:C by rich polypurine site 24 by away from the mutation. The plasmid vector DNA was co-mixed with selected molecules, and the samples were transfected into monkey COS cells. Two days were allowed for repair/recombination/replication, and the episomal vector DNA was harvested for genetic analysis of the supF gene in indicator bacteria, as previously described (by Chan, et al., J. Biol. Chem., 274:11541-11548 (1999)). As expected, and consistent with other published work, the TFO (AG30) and the bis-PNAS induced gene correction in the supF gene at frequencies of 0.14% and 0.21%, respectively (FIG. 4). […] A pair of control pcPNAs (pcPNA3 and pcPNA4) with 5 mismatches each to the supF target site were ineffective, showing the sequence specificity of the process.

GTTCAGCGTGTCCGGCGAGGGCGAGGTGAGTCTATGGGACCCTTGATGTTT (listed as DNA, chemistry not given here) [GFP-donor DNA]
Frequency of gene correction ([1]; S-phase synchronized cells, SAHA, single treatment): 0.29% | Frequency of gene correction ([1]; asynchronous CHO-GFP/IVS2-1G→A cells, single electroporation, no additive): 0.005%

JJJJJTTJJT-O-O-O-TCCTTCCCCC-(Lys)3 (JJJJJTTJJT-O-O-O-TCCTTCCCCC-(Lys)_{3}; as printed in the source, key not given here) [Bis-PNA5]
Frequency of gene correction in the supF gene (recombination frequency) (supF reporter gene): 0.21%

AGGAAGGGGGGGGTGGTGGGGGAGGGGGAG (chemistry not given here) [AG30]
Frequency of gene correction in the supF gene (recombination frequency) (supF reporter gene): 0.14%

From US8309356B2, “Pseudocomplementary oligonucleotides for targeted gene therapy” (Yale University, priority 2009, dated 2012)
